These results are taken from patent US8598209B2, “P2X3, receptor antagonists for treatment of pain” (Merck Sharp & Dohme Corp., priority 2008, dated 2013).

This assay concerns the target T1, human P2X3 (Homo sapiens, UniProt P56373).
T1 construct: expressed in transfected cells
T1 sequence (P56373 1-397): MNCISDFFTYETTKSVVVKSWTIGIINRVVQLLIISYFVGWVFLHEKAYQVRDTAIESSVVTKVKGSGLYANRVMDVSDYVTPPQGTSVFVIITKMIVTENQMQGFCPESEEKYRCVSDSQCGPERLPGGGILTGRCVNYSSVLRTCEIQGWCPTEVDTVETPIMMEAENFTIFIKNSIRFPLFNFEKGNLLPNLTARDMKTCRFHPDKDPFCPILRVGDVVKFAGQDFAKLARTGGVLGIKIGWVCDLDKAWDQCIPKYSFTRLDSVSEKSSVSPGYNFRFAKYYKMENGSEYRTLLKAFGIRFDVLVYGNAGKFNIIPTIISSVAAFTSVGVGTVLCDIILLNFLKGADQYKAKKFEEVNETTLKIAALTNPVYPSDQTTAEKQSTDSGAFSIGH
As to the kind of experiment: Intracellular Calcium Measurement to Assess Antagonist Affinity (FLIPR, Fluo-4), human P2X3 cells. The settings on record: Intracellular Calcium Measurement to Assess Antagonist Affinity assay; agonist α,β-meATP at EC50. It counts as cell-based. From the text: Generation of a Human P2X3 and P2X2/3 Stable Cell Line—
Human P2X3 receptor cDNA (Accession number NM_002559) was subcloned as a 5′XhoI and 3′HindIII fragment into the expression vector pcDNA5/FRT (Invitrogen). Human P2X2 receptor cDNA (Accession number NM_174873) was subcloned as a 5′EcoRI and 3′NotI fragment into the expression vector pIRESneo2 (BD Biosciences Clontech). The human P2X3 expression construct was transfected using Lipofectamine 2000 (Invitrogen) into Flp-in—293 cells (Invitrogen) according to the manufacturer's directions. Cells positive for flp-mediated recombination of […] P2X3 were selected using 150 μg/ml hygromycin. The stable human P2X3 cell line was co-transfected with the human P2X2 expression construct using Lipofectamine 2000 as above and co-transfected cells selected using […] hygromycin and 1 mg/ml G418. The stable P2X3 cell line was propagated in DMEM, 10% FBS, 100 μg/ml hygromycin, and 100 units/ml penicillin and 100 μg/ml streptomycin, and maintained at 37° and 95% humidity. The stable P2X2/3 cell line was propagated as above with the addition of 500 μg/ml G418.
Intracellular Calcium Measurement to Assess Antagonist Affinity—
A fluorescent imaging plate reader (FLIPR; Molecular Devices) was used to monitor intracellular calcium levels using the calcium-chelating dye Fluo-4 (Molecular Probes). The excitation and emission wavelengths used to monitor fluorescence were 488 nm and 530 nm, respectively. Cells expressing either human P2X3 or human P2X2/3 were plated at a density of 20,000 cells/well (20 μl/well) in 384-well black-walled plates approximately 20 hours before beginning the assay. On the day of the assay 20 μl of loading buffer (Hank's balanced salt solution, 2.5 mM CaCl2, 20 mM HEPES, 0.1% BSA, 2.5 mM probenecid, TR-40, Fluo-4, and 138 mM NMDG substituted for NaCl) is added and cells dye-loaded for 60 min in the dark at room temperature. Ten minutes prior to adding agonist, the antagonist was added in a volume of 10 μl and allowed to incubate at room temperature. During this period fluorescence data is collected at 3 sec intervals followed by 10 sec intervals. The agonist, α,β-meATP, is added at a 6× concentration ([α,β-meATP]final=EC50). Following agonist addition fluorescence was measured at 5 sec intervals and analyzed based on the increase in peak relative fluorescence units (RFU) compared to the basal fluorescence. Peak fluorescence was used to determine the inhibitory effect at each concentration of antagonist by the following equation: % Inhibition=100*(1−((RFU(drug)−RFU(control))/(RFU(DMSO only)−RFU(control)))) In vitro Electrophysiological Assay—
Background: A change in cytosolic calcium serves as a functional read-out for many receptors and channels.
As for `C[C@@H](NC(=O)c1cc(-c2ccc(F)cc2F)nc(C(C)(C)O)c1)c1ccc(C(F)(F)F)[n+]([O-])c1` [Example 1.62, 2-(2,4-Difluorophenyl)-6-(1-hydroxy-1-methylethyl)-N-{(1R)-1-[1-oxido-6-(trifluoromethyl)pyridin-3-yl]ethyl}isonicotinamide], the IC50 (usually the midpoint of a concentration-inhibition curve) was 23 nM.

Consider `Cc1ccc(-c2cc(C(=O)N[C@@H](C)c3nnc[nH]3)nc(-c3ccc(C)cc3)n2)cc1` [Example 2.1], for which the IC50 worked out at 165 nM.

Take `Cc1ccc(-c2cc(C(=O)N[C@H](C)c3nc(C)no3)cnc2OC(C)C)cc1` [Example 3.22]: the IC50 came to 42 nM.

Regarding `Cc1noc([C@@H](C)NC(=O)c2cc(-c3ccc(F)cc3)c(=O)n(C(C)C)c2)n1` [Example 5.61, 5-(4-fluorophenyl)-1-isopropyl-N-[(1R)-1-(3-methyl-1,2,4-oxadiazol-5-yl)ethyl]-6-oxo-1,6-dihydropyridine-3-carboxamide], the IC50 worked out at 48 nM.
